Results published in paper PMC10057480, “Expanding the Library of 1,2,4-Oxadiazole Derivatives: Discovery of New Farnesoid X Receptor (FXR) Antagonists/Pregnane X Receptor (PXR) Agonists” (Molecules, 2023).

System: Human-CaCo2 cells stimulated with TNFα
Experiment: qPCR of PXR and inflammatory cytokines in TNFα-stimulated CaCo2 cells
Assay type: cell-based
Conditions: TNFα 100 ng/mL plus compound 10 μM
Experimental: HepG2 and CaCo2 cell lines, obtained from ATCC, were routinely cultured in Eagle’s MEM and high-glucose DMEM, respectively, supplemented with 10% FBS, 1% glutamine, and penicillin/streptomycin. For in vitro experiments, HepG2 (2 × 106) cells were stimulated with 6-ECDCA at a concentration of 10 µM alone or in combination with compound 5 or 11, and CaCo2 cells were exposed to TNFα (100 ng/mL) alone or in combination with rifaximin, compound 5, or 11.
Total RNA was isolated from the HepG2 and CaCo2 cell lines using TRI reagent (Zymo Research) and Direct-zol™ RNA MicroPrep w/Zymo-Spin™ IIC Columns (Zymo Research, Irvine, CA, USA). After purification from genomic DNA using DNase I (Thermo Fisher Scientific, Waltham, MA, USA), 2 μg of RNA from each sample was reverse transcribed using Kit FastGene Scriptase Basic (Nippon Genetics, Mariaweilerstraße, Düren, Germany) in 20-μL of reaction volume, and 50 ng of cDNA was amplified in a 20-μL solution containing 200 nM of each primer and 10 μL of PowerUp™ SYBR™ Green Master Mix (Thermo Fisher Scientific, Waltham, MA, USA) using a Quantstudio 3 system (Applied Biosystems, Foster City, CA, USA). The relative mRNA expression was calculated according to the ΔCt method. The primer used were as follows (forward and reverse): hGapdh (for […]; rev […]), hBsep (for […]; rev […]), hOstα (for […]; rev […]), hNtcp (for […]; rev […]), hPxr (for GCAAGGGCTTTTTCAGGAG; rev GGGTCTTCCGGGTGATCT), hIl-8 (for […]; rev […]), hIl-1β (for […]; rev […]).

SMILES	Effect on proinflammatory factors caused by TNFα stimulation
OCc1ccc(CN2CCC(c3nc(-c4ccc5ccccc5c4)no3)CC2)cc1 [Compound 11, 5-[1-(4-(Hydroxymethyl)benzyl)piperidin-4-yl]-3-(naphthalen-2-yl)-1,2,4-oxadiazole]	reduced changes in the production of proinflammatory factors
CCCCCN1CCC(c2nc(-c3ccc4ccccc4c3)no2)CC1 [Compound 5, 3-(Naphthalen-2-yl)-5-(1-pentylpiperidin-4-yl)-1,2,4-oxadiazole]	reduced changes in the production of proinflammatory factors
